Measurements from patent US20180000085A1, “USE OF PICOLINAMIDE COMPOUNDS WITH FUNGICIDAL ACTIVITY” (DOW AGROSCIENCES LLC, priority 2014, published 2018).

Assays:
[1] = test system: Zymoseptoria tritici; assay: Leaf blotch of wheat (SEPTTR) disease control on wheat seedlings; assay type: in vivo; design: key to SEPTTR 1DP, HV activity at 100 ppm (% control rating) / SEPTTR 3DC, HV activity at 100 ppm (% control rating) / SEPTTR disease control, 1DP / SEPTTR disease control, 3DC / SEPTTR 1DP disease control rating, HV activity / SEPTTR 3DC disease control rating, HV activity / SEPTTR 3DC, LV activity at 125.1 g/H (% Control rating) / SEPTTR 1DP, LV activity at 125.1 g/H (% Control rating) / SEPTTR 1DP disease control rating, LV activity at 125.1 g/H / SEPTTR 3DC disease control rating, LV activity at 125.1 g/H / SEPTTR 3DC disease control rating, HV activity at 100 ppm / SEPTTR 1DP disease control rating, HV activity at 100 ppm / HV activity at 100 ppm SEPTTR 3DC (disease control rating) / HV activity at 100 ppm SEPTTR 1DP (disease control rating) / LV activity at 125.1 g/H SEPTTR 1DP (disease control rating) / LV activity at 125.1 g/H SEPTTR 3DC (disease control rating): A: > 80; B: ≤ 80; C: Not Tested; D: No Activity Observed in the Reported Assay; conditions: for SEPTTR 1DP disease control rating, HV activity / SEPTTR 3DC disease control rating, HV activity: HV application at 100 ppm; for SEPTTR 1DP disease control rating, HV activity at 100 ppm / SEPTTR 3DC disease control rating, HV activity at 100 ppm: high volume application
[2] = test system: Puccinia triticina; assay: Wheat brown rust (PUCCRT) disease control on wheat seedlings; assay type: in vivo; design: key to PUCCRT 3DC, HV activity at 100 ppm (% control rating) / PUCCRT disease control, 3DC / PUCCRT 1DP disease control rating, HV activity / PUCCRT 3DC disease control rating, HV activity / PUCCRT 3DC, LV activity at 125.1 g/H (% Control rating) / PUCCRT 1DP, LV activity at 125.1 g/H (% Control rating) / PUCCRT 3DC disease control rating, LV activity at 125.1 g/H / PUCCRT 1DP disease control rating, LV activity at 125.1 g/H / PUCCRT 3DC disease control rating, HV activity at 100 ppm / PUCCRT 1DP disease control rating, HV activity at 100 ppm / HV activity at 100 ppm PUCCRT 3DC (disease control rating) / LV activity at 125.1 g/H PUCCRT 1DP (disease control rating) / LV activity at 125.1 g/H PUCCRT 3DC (disease control rating): A: > 80; B: ≤ 80; C: Not Tested; D: No Activity Observed in the Reported Assay; conditions: for PUCCRT 1DP disease control rating, HV activity / PUCCRT 3DC disease control rating, HV activity: HV application at 100 ppm; for PUCCRT 1DP disease control rating, HV activity at 100 ppm / PUCCRT 3DC disease control rating, HV activity at 100 ppm: high volume application
[3] = 1 Day Protectant, wheat leaf blotch
[4] = 3 Day Curative, wheat leaf blotch
[5] = 1 Day Protectant, wheat brown rust
[6] = 3 Day Curative, wheat brown rust
[7] = low volume application, 125.1 g/H, 1 Day Protectant
[8] = low volume application, 125.1 g/H, 3 Day Curative
[9] = low volume application, 125.1 g/H, 1 day protectant
[10] = low volume application, 125.1 g/H, 3 day curative

SMILES: COc1ccnc(C(=O)NC(C)C(=O)OC(C)C(Oc2ccc3ccccc3c2)C(C)C)c1O (centres unmarked) [Cmpd 398]
- SEPTTR 1DP disease control rating, HV activity [1, 3]: D
- SEPTTR 3DC disease control rating, HV activity [1, 4]: B (≤ 80)
- PUCCRT 1DP disease control rating, HV activity [2, 5]: A (> 80)
- PUCCRT 3DC disease control rating, HV activity [2, 6]: B (≤ 80)

SMILES: C=CC[C@@H](Oc1ccc(C(F)(F)F)cc1)[C@H](C)OC(=O)[C@H](C)NC(=O)c1nccc(OC)c1OCOC(C)=O [Cmpd 1077]
- LV activity at 125.1 g/H SEPTTR 1DP (disease control rating) ([1]; low volume application, 125.1 g/H, 1 Day Protectant, wheat leaf blotch): B (≤ 80)
- LV activity at 125.1 g/H SEPTTR 3DC (disease control rating) ([1]; low volume application, 125.1 g/H, 3 Day Curative, wheat leaf blotch): D
- LV activity at 125.1 g/H PUCCRT 1DP (disease control rating) ([2]; low volume application, 125.1 g/H, 1 Day Protectant, wheat brown rust): A (> 80)
- LV activity at 125.1 g/H PUCCRT 3DC (disease control rating) ([2]; low volume application, 125.1 g/H, 3 Day Curative, wheat brown rust): B (≤ 80)

SMILES: CCCOC(CC)C(Oc1ccccc1)C(C)OC(=O)C(CC(C)C)NC(=O)c1nccc(OC)c1OCOC(C)=O (centres unmarked) [Cmpd 448]
- SEPTTR 1DP disease control rating, HV activity [1, 3]: B (≤ 80)
- SEPTTR 3DC disease control rating, HV activity [1, 4]: B (≤ 80)
- PUCCRT 1DP disease control rating, HV activity [2, 5]: A (> 80)
- PUCCRT 3DC disease control rating, HV activity [2, 6]: B (≤ 80)

SMILES: COc1ccnc(C(=O)NC(C)C(=O)OC(C)COC(=O)C(C)C)c1OC(C)=O (centres unmarked) [Cmpd 532]
- SEPTTR 1DP, LV activity at 125.1 g/H (% Control rating) [1, 7]: B (≤ 80)
- SEPTTR 3DC, LV activity at 125.1 g/H (% Control rating) [1, 8]: A (> 80)
- PUCCRT 1DP, LV activity at 125.1 g/H (% Control rating) [2, 7]: D
- PUCCRT 3DC, LV activity at 125.1 g/H (% Control rating) [2, 8]: D

SMILES: COc1cccc(O[C@H](C2CC2)[C@H](C)OC(=O)[C@H](C)NC(=O)c2nccc(OC)c2O)c1 [Cmpd 1014]
- SEPTTR 1DP disease control rating, HV activity at 100 ppm ([1]; 100 ppm, 1 day protectant): B (≤ 80)
- SEPTTR 3DC disease control rating, HV activity at 100 ppm ([1]; 100 ppm, 3 day curative): B (≤ 80)
- PUCCRT 1DP disease control rating, HV activity at 100 ppm ([2]; 100 ppm, 1 day protectant): A (> 80)
- PUCCRT 3DC disease control rating, HV activity at 100 ppm ([2]; 100 ppm, 3 day curative): A (> 80)

SMILES: COc1ccnc(C(=O)NC(Cc2ccccc2)C(=O)OC(C)C(Oc2ccccc2)C(C)C)c1OCOC(C)=O (centres unmarked) [Cmpd 865]
- SEPTTR 1DP disease control rating, LV activity at 125.1 g/H [1, 9]: B (≤ 80)
- SEPTTR 3DC disease control rating, LV activity at 125.1 g/H [1, 10]: B (≤ 80)
- PUCCRT 1DP disease control rating, LV activity at 125.1 g/H [2, 9]: A (> 80)
- PUCCRT 3DC disease control rating, LV activity at 125.1 g/H [2, 10]: A (> 80)

SMILES: CC(NC(=O)c1nccc(Cl)c1O)C(=O)OC(C)C(Oc1ccccc1)C(C)C (centres unmarked) [Cmpd 425]
- SEPTTR 1DP disease control rating, HV activity [1, 3]: D
- SEPTTR 3DC disease control rating, HV activity [1, 4]: D
- PUCCRT 1DP disease control rating, HV activity [2, 5]: B (≤ 80)
- PUCCRT 3DC disease control rating, HV activity [2, 6]: D

SMILES: COc1ccnc(C(=O)N[C@@H](C)C(=O)O[C@@H](C)[C@@H](COc2ccccc2)Oc2ccccc2)c1O [Cmpd 315]
- SEPTTR 1DP disease control rating, HV activity [1, 3]: B (≤ 80)
- SEPTTR 3DC disease control rating, HV activity [1, 4]: B (≤ 80)
- PUCCRT 1DP disease control rating, HV activity [2, 5]: B (≤ 80)
- PUCCRT 3DC disease control rating, HV activity [2, 6]: A (> 80)

SMILES: COc1ccnc(C(=O)NC(C)C(=O)OC(C(C)C)C(Oc2ccccc2)C(C)C)c1O (centres unmarked) [Cmpd 1031]
- HV activity at 100 ppm SEPTTR 1DP (disease control rating) ([1]; HV application, 100 ppm, 1 Day Protectant, wheat leaf blotch): B (≤ 80)
- HV activity at 100 ppm SEPTTR 3DC (disease control rating) ([1]; HV application, 100 ppm, 3 Day Curative, wheat leaf blotch): D
- HV activity at 100 ppm PUCCRT 1DP (disease control rating) ([2]; HV application, 100 ppm, 1 Day Protectant, wheat brown rust): B (≤ 80)
- HV activity at 100 ppm PUCCRT 3DC (disease control rating) ([2]; HV application, 100 ppm, 3 Day Curative, wheat brown rust): D

SMILES: COc1ccnc(C(=O)NC(C)C(=O)OC(C)C(Oc2ccccc2)C2CCCCC2)c1O (centres unmarked) [Cmpd 836]
- SEPTTR 1DP disease control rating, HV activity at 100 ppm ([1]; 100 ppm, 1 day protectant): A (> 80)
- SEPTTR 3DC disease control rating, HV activity at 100 ppm ([1]; 100 ppm, 3 day curative): A (> 80)
- PUCCRT 1DP disease control rating, HV activity at 100 ppm ([2]; 100 ppm, 1 day protectant): A (> 80)
- PUCCRT 3DC disease control rating, HV activity at 100 ppm ([2]; 100 ppm, 3 day curative): A (> 80)

SMILES: CCC(CC)[C@@H](Oc1ccccc1)[C@H](C)OC(=O)CNC(=O)c1nccc(OC)c1O [Cmpd 307]
- SEPTTR 1DP disease control rating, HV activity [1, 3]: D
- SEPTTR 3DC disease control rating, HV activity [1, 4]: A (> 80)
- PUCCRT 1DP disease control rating, HV activity [2, 5]: A (> 80)
- PUCCRT 3DC disease control rating, HV activity [2, 6]: A (> 80)
